Data on four compounds can be found in patent US8889919B2, “Cyclic compound, process for production of the cyclic compound, radiation-sensitive composition, and method for formation of resist pattern” (Mitsubishi Gas Chemical Company, Inc., priority 2009, dated 2014).

The data set in a line: Solubility of compound in safety solvent. The conditions noted are these: for Solubility in CHN: solvent cyclohexanone (CHN); for Solubility in PGME: solvent propylene glycol monomethyl ether (PGME). Type of data set: physicochemical. The method, then: (1) Solubility of Compound in Safety Solvent
The compounds obtained in Synthesis Examples 1 to 6 and Synthesis 1 to 4 were evaluated for the solubility in propylene glycol monomethyl ether (PGME) and cyclohexanone (CHN).
B: 1.0 wt %≦dissolved amount<4.0 wt %
C: dissolved amount<1.0 wt %

Molecules are shown by their SMILES.

Consider `Oc1cc(O)c2cc1C(c1ccc(-c3ccccc3)cc1)c1cc(c(O)cc1O)C(c1ccc(-c3ccccc3)cc1)c1cc(c(O)cc1O)C(c1ccc(-c3ccccc3)cc1)c1cc(c(O)cc1O)C2c1ccc(-c2ccccc2)cc1` (centres unmarked) [CR-3A], for which the “Solubility in CHN” value was “A (4.0 wt %≦amount)” and the “Solubility in PGME” value is “C (dissolved amount<1.0 wt %)”.

Regarding `Oc1cc(O)c2cc1C(c1ccc(C3CCCCC3)cc1)c1cc(c(O)cc1O)C(c1ccc(C3CCCCC3)cc1)c1cc(c(O)cc1O)C(c1ccc(C3CCCCC3)cc1)c1cc(c(O)cc1O)C2c1ccc(C2CCCCC2)cc1` (centres unmarked) [CR-4A], the “Solubility in CHN” value is listed as “A (4.0 wt %≦amount)” and the “Solubility in PGME” value is “B (1.0 wt %≦dissolved amount<4.0 wt %)”.

In the case of `CC(C)c1ccc(C2c3cc(c(O)cc3O)C(c3ccc(C(C)C)cc3)c3cc(c(O)cc3O)C(c3ccc(C(C)C)cc3)c3cc(c(O)cc3O)C(c3ccc(C(C)C)cc3)c3cc2c(O)cc3O)cc1` (centres unmarked) [CR-1A], the “Solubility in CHN” value is reported as “A (4.0 wt %≦amount)” and the “Solubility in PGME” value is “B (1.0 wt %≦dissolved amount<4.0 wt %)”.

For the compound `CC(C)Cc1ccc(C2c3cc(c(O)cc3O)C(c3ccc(CC(C)C)cc3)c3cc(c(O)cc3O)C(c3ccc(CC(C)C)cc3)c3cc(c(O)cc3O)C(c3ccc(CC(C)C)cc3)c3cc2c(O)cc3O)cc1` (centres unmarked) [CR-2A], the “Solubility in CHN” value is “B (1.0 wt %≦dissolved amount<4.0 wt %)” and the “Solubility in PGME” value is reported as “C (dissolved amount<1.0 wt %)”.
